Consider 5 molecules from patent publication US20070203109A1, “Compounds And Compositions For Treatment Of Cancer” (priority 2004, published 2007).

The structures appear in SMILES notation. Entries after “also recorded” stand apart in the source; their conditions may differ. Where two headings read alike, the source gives them in different places.

In one data set the target is DT-Diaphorase (DTD) (Homo sapiens, UniProt P15559). As to the kind of experiment: Suitability as substrate for DTD (activation by DTD). It counts as biochemical. An excerpt: The results of these tests are set out in Table 2.
Chain of DT-Diaphorase (DTD) (P15559 whole entry): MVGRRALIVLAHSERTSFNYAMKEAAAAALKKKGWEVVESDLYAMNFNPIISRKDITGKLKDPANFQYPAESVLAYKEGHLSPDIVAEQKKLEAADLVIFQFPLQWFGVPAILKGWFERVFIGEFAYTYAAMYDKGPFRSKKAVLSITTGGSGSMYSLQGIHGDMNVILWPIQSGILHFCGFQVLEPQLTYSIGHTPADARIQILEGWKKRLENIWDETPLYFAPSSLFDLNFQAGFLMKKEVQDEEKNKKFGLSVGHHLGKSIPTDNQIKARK
The nature of another data set: clinical. Details: species or system human. The settings on record: in vivo; for half-life: iv. The procedure:
RH-1 is activated by NAD(P)H: Quinone acceptor oxidoreductase (NQO1; DT-diaphorase, DTD). DTD is often over-expressed in lung, colon, liver and breast tumours. RH-1 is undergoing Phase I trial at the Christie Hospital, UK. The pharmacokinetic (PK) requirements of this trial required assays that detect nM levels of RH-1 in serum using LC-MS. The extraction and quantitation of RH-1 from human plasma was validated and a limit of detection of 1 ng/ml reached.
(§1) RH1 was administered intravenously on a daily schedule for 5 day periods following a dose escalation scheme. Treatment was repeated on a 21 day cycle. A dose escalation scheme was used to try to establish dose-limiting toxicity. Predicted toxicity includes myelosuppression, emesis, renal toxicity and local injection site irritation. Safety and tolerability were monitored each cycle. Anti-tumour response was assessed after each 2 cycles using RECIST criteria.
Patients lymphocytes exposed to RH1 on infusion were analysed using the comet-X assay, which detects DNA interstrand cross-links.

Data set [1] has as its system DNA of peripheral blood lymphocytes. As to the kind of experiment: Comet-X assay of patients' peripheral blood lymphocytes in the Phase I trial. It counts as in vivo, human. An excerpt: A modified version of the single cell gel electrophoresis comet assay, the Comet-X, specifically detects DNA cross-linking in individual cells and has been validated for clinical trial use. 9 patients have been treated with RH-1 and PMBCs (peripheral blood lymphocytes) isolated from pre-infusion and post infusion time points on both day 1 and day 5 of treatment were subjected to Comet-X assay (FIG. 2). From the data obtained, accumulative DNA damage appears to be occurring in PBMC's over the 5 day infusion period leading to significant DNA cross linking (30%) by day 5 (FIG. 3). Other PD (pharmacodynamic) assays used in the trial include assessment of DTD levels and activity and RFLP genotyping of the NQO1 gene.
(§2) The Comet assay is a sensitive method of detecting DNA breaks in single cells. The cells are embedded in agarose and spread onto microscope slides. After lysis and de-proteinisation, the cells are subjected to alkaline unwinding at high pH (12.5). The DNA becomes relaxed and unwinds at points where DNA single and double strand breaks occur. The cells are then finally subjected to micro-electrophoresis during which relaxed and damaged DNA migrates away from the nucleus resulting in the classic comet shape when visualised under microscopy. This migration of DNA is retarded when the DNA has been subjected to interstrand cross-linking by drugs such as RH1. In the comet-X assay used in this trial, control non-drug treated lymphocytes from the patient's pre-infusion are subjected to gamma radiation to introduce a fixed number of DNA breaks into each cell. This treatment results in a fixed amount of migration under electrophoresis quantified as the percentage (%) of DNA in the tail of the comet image. Patients lymphocytes exposed to RH1 on infusion are collected and irradiated with the same dose of gamma radiation as the control pre-infusion lymphocytes. It was expected that interstrand cross-links produced by RH1 will retard the migration of DNA during electrophoresis resulting in less DNA in the tail of the comet compared to the irradiation only controls. Results are expressed as % DNA cross linked.
To date 12 patients have been treated with RH1 and peripheral blood lymphocytes isolated from pre-infusion and post infusion time points on both day 1 and day 5 of treatment. These lymphocytes have been subjected to the Comet-X assay described above and the amount of DNA present in the tail of the comets following irradiation has been measured. Internal QC samples have been run each time a patients samples have been processed. The data has been pooled into exposure times (short 5-10 minutes, medium 40-120 minutes and long 4-24 hrs exposure) and dose cohorts, (1) 40-135 μg/m^2, (2) 200-326 μg/m^2, (3) 410-810 μg/m^2, and (4) […] ranges for ease of analysis.

In the next data set the test system is skin biopsy lesions. As to the kind of experiment: Comet-X assay on skin biopsy lesions. It counts as in vivo, human. The settings on record: highest cohort treated.
The next data set concerns solid tumours. Nature of the data set: Phase I clinical trial: safety, tolerability and anti-tumour response. It counts as in vivo, human.
Description: The RH1 trial involved administering RH1 to patients having histologically proven solid tumours that were refractory to conventional treatment or for whom no conventional treatment exists. The WHO performance status of these patients was 0 or 1. WHO performance status is an indicator of a patients overall level of well being/activity. A WHO performance status of 0 means that the patient is fully active, able to carry out all normal activity, without restriction. A WHO performance status of 1 means the patient is restricted in physically strenuous activity but ambulatory and able to carry out work of a light or sedentary nature, e.g. light house work, office work.
as §1

The subject of data set [2] is DNA of human lymphocytes (PBLs). Nature of the data set: RH1 drug dosimetry in human lymphocytes in vitro (Comet-X assay). Type of data set: cell-based. As to the method:
Optimal DNA cross-linking is shown in the range 50 to 100 nM RH1.
as §2, with “It was expected that interstrand cross-links produced by RH1 will retard the migration of DNA during electrophoresis resulting in less DNA in the tail of the comet compared to the irradiation only controls.” left out, “linked. […]” for “linked.”

Data set [3] in a line: physchem. The settings on record: 25 °C, aqueous buffer.
Data set [4] can be described thus: physchem. The following applies: buffer, pH 7.

`CCOC(=O)NC1=C(N2CC2)C(=O)C(NC(=O)OCC)=C(N2CC2)C1=O` [AZQ, 3,6-diaziridinyl-2,5-bis-(carboethoxyamino)1,4-benzoquinone]: the DTD substrate entry on DT-Diaphorase (DTD) is “Moderate”.
Same read-out and setting: with `O=C1C(NCCO)=C(N2CC2)C(=O)C(NCCO)=C1N1CC1` [BZQ, 3,6-diaziridinyl-2,5-bis-2(-hydroxyethylamino)1,4-benzoquinone] the entry was “Poor”.
On the same count and under the same terms, with `Cn1c(/C=C/CO)c(CO)c2c1C(=O)C=C(N1CC1)C2=O` [E09, 3-HYDROXYMETHYL-5-AZIRIDINYL-1METHYL-2-[1H-INDOLE-4,7-DIONE]-PROPANOL] the entry was “Moderate”.
`CO[C@@]12[C@H](COC(N)=O)C3=C(C(=O)C(C)=C(N)C3=O)N1C[C@@H]1N[C@@H]12` [Mitomycin C]: the DTD substrate entry on DT-Diaphorase (DTD) is listed as “Poor”; at DT-Diaphorase (DTD) (listed as mitomycin C), “relatively poor substrate”.
Broadly, the half-life is the time in which the quantity being followed falls by half. Lower therefore signals fast loss. The solubility is how much of the substance goes into solution per volume. With `CC1=C(N2CC2)C(=O)C(CO)=C(N2CC2)C1=O` [RH1, 2,5-diaziridinyl-3-hydroxymethyl-6-methyl-1,4-benzoquinone], the Clearance saturability entry in “clinical” (human) was “did not appear to be saturable”. Also, the half-life in “clinical” (human, half-life (clearance from the blood)) was about 6 min; in “clinical” (human, plasma half-life), 2 to 12 min; in the data set “physchem [4]”, over 48 h. The “relationship between drug dose and area under the curve” value in the data set “clinical” was “linear relationship”. The DTD substrate result is reported as “excellent substrate” on DT-Diaphorase (DTD) and “good substrate” on DT-Diaphorase (DTD) (listed as RH-1). In data set [1] (all patients, statistical analysis), the “cross-linking on day 5 compared with day 1” value is recorded as “significantly more cross-linking”. For the same molecule, the “DNA cross linking in PBMCs” value in data set [1] (by day 5 of the 5 day infusion period) came to 30%. The “% DNA in the tail (distribution peak)” value in data set [1] (day 1, similar to irradiated control) was 70-80%; in data set [1] (day 5, PBLC population) it was 60-70%. In addition, the “degree of cross-linking in PBMCs, highest cohort” value in data set [1] (highest cohort (1080-1095 mg/m^2), day 5) is given as 15-20%. For the same molecule, the “DNA cross-linking, medium dose cohort” value in data set [1] (medium dose cohort, day 1 (particularly 4 hr, 24 hr samples) and throughout day 5) is recorded as “evidence of DNA cross-linking”. For the same molecule, the “DNA cross-linking, low dose cohort” value in data set [1] (pooled data, low dose cohort, day 1 or day 5) is given as “no DNA cross-linking”. In addition, the “Comet-X result on skin biopsy lesions” value in the data set on skin biopsy lesions was “demonstrate efficacy”. Also, the “toxicity, patient 5” value in the data set with solid tumours (patient 005, 265 μg/m^2/d) was “grade I thrombocytopenia; also recorded: grade I renal impairment”. The “toxicity, patient 007” value in the data set on solid tumours (patient 007, dose level 7) was “evidence of toxicity”. For the same molecule, in the data set with solid tumours (patients 001-004, 40-200 μg/m^2/d i.v. daily x5), the “treatment-related toxicity, first 4 patients” value is “no treatment-related toxicity”. In addition, the “dose response of DNA cross-linking” value in data set [2] (PBLs treated 5-100 nM RH1, 2 hours, 37° C., concentration increased to 50 nM) was “increase in DNA cross-linking”. For the same molecule, in data set [2] (human lymphocytes, Comet-X, FIG. 1), the “RH1 concentration range of optimal DNA cross-linking” value is given as 50 to 100 nM. Moreover, the solubility in the data set “physchem [3]” was over 500 µg/mL.
